Like-named read-outs stand apart in the source and are kept apart here.
Key:
[1] = Pharmacokinetic study in ICR mice (oral gavage and intravenous, plasma LC-MS/MS); type: in vivo; details: for Vd / AUC(0-t) / Cmax / MRT last / clearance / half-life / AUC(0-inf) / concentration at 8 h / Tmax / bioavailability: mouse, plasma; for Vd: iv, 10 mg/kg; for AUC(0-inf): read-out: AUCINF_obs; for concentration at 8 h: read-out: Clast; for bioavailability: read-out: Bioavailability (F)
Protocol: Each group consisted of 12 animals. The dosing vehicle was 10% DMSO + 10% polyoxyethylene castor oil + 80% physiological saline solution. The oral gavage group was fasted for approximately 12 hours prior to dosing and allowed food 4 hours after administration. Water was not restricted during the experiment. Approximately 0.2 mL of blood was collected from the orbital sinus at the following time points: pre-dose and 5, 15, 30 minutes, 1, 2, 4, 6, 8, and 24 hours post-dose. Blood was collected into EP tubes containing EDTA-K2 as anticoagulant and placed on ice. Plasma was separated by centrifugation at 3500 rpm for 5 minutes at 4°C within 1 hour of blood collection. Plasma samples were stored at -20°C until analysis. […] Pharmacokinetic parameters were calculated using WinNonlin software.

HCC70 = experiment: Anti-proliferative activity on tumor cells (Cell Titer-Glo), HCC70; type: cell-based; details: HCC70, 7 days
Protocol: (§1) Tumor cell lines including HCT-116, MDA-MB-468, Jurkat, HCC70, and MDA-MB-436 were cultured in their respective growth media. Cells were seeded into 384-well plates at densities of 600, 300, 800, 800, and 1000 cells/well (in 18 µL/well), respectively, and incubated overnight at 37°C under 5% CO2 (MDA-MB-468 cells were incubated overnight at 37°C under 100% air). Test sample stock solutions were prepared in DMSO at 10 mM and serially diluted 1:3 across 10 concentrations in 1% DMSO to prepare 10X intermediate dilution plates. Then, 2 µL/well of the 1oX intermediate dilution was added to the cell plates to achieve the final assay concentrations: 10000, 3333, 1111, 370, 123, 41, 14, 4.6, and 1.5 nM. HCT-116, Jurkat, and HCC70 cell plates were incubated for 3, 7, and 7 days at 37°C with 5% CO2, respectively (MDA-MB-468 cell plates were incubated for 7 days at 37°C with 100% air). After treatment, Cell Titer-Glo reagent was removed from -20°C storage and equilibrated to room temperature. Then, 20 µL/well of Cell Titer-Glo reagent was added to each well and incubated for 10 minutes. After the 10-minute incubation, luminescence was measured using a microplate reader. Data were analyzed using Excel and the IC50 values were calculated using GraphPad Prism 7.0 software.

HCT-116 = experiment: Anti-proliferative activity on tumor cells (Cell Titer-Glo), HCT-116; type: cell-based; details: HCT-116, 3 days
Protocol: as §1

MDA-MB-468 = experiment: Anti-proliferative activity on tumor cells (Cell Titer-Glo), MDA-MB-468; type: cell-based; details: MDA-MB-468, 7 days, 100% air
Protocol: as §1

Jurkat = experiment: Anti-proliferative activity on tumor cells (Cell Titer-Glo), Jurkat; type: cell-based; details: 7 days
Protocol: as §1

CDK7/CycH/MAT1 = CDK7/CycH/MAT1 (Homo sapiens, UniProt P50613); experiment: Inhibition of CDK7/CycH/MAT1 kinase activity (ADP-Glo); type: biochemical; details: IC50, ATP 30 µM, substrate 0.1 µM, 60 minutes at 25°C
Protocol: The CDK7/CycH/MAT1 protein was thawed on ice, and the remaining reagents were equilibrated to room temperature. The CDK7/CycH/MAT1 protein and ATP/substrate were diluted to the corresponding concentrations using enzyme reaction buffer (50 mM Hepes, 10 mM MgCl2, 0.01% Brij35, 1 mM EGTA, 2 mM DTT). The test compounds were added to a 384-well white low-volume enzyme assay plate at 20 nL per well, followed by the addition of the prepared CDK7/CycH/MAT1 protein (2 µL/well), mixed well, and incubated at 25°C for 10 minutes. The reaction was initiated by adding ATP/substrate and allowed to proceed at 25°C for 60 minutes. The final concentrations of each component in the enzyme reaction system were as follows: CDK7/CycH/MAT1 protein, 3.5 ng/µL; ATP, 30 µM; substrate, 0.1 µM. The concentrations of the test compounds ranged from high to low as follows: 5000, 1667, 556, 185, 62, 21, 7, 2, 1, and 0.3 nM. After completion of the enzymatic reaction, 4 µL of ADP-Glo Reagent was added to each well and incubated at 25°C for 40 minutes. Subsequently, 8 µL of Kinase Detection Reagent was added to each well and incubated at25°C for another 40 minutes. Chemiluminescence signals were recorded using a microplate reader, and the data were used to generate dose-response curves and calculate IC50 values.

[2] = male ICR mice, iv. 10mg/kg, read-out: Vss
[3] = male ICR mice, iv. 10mg/kg, read-out: Vz

Chain of CDK7/CycH/MAT1 (P50613 whole entry, species assumed): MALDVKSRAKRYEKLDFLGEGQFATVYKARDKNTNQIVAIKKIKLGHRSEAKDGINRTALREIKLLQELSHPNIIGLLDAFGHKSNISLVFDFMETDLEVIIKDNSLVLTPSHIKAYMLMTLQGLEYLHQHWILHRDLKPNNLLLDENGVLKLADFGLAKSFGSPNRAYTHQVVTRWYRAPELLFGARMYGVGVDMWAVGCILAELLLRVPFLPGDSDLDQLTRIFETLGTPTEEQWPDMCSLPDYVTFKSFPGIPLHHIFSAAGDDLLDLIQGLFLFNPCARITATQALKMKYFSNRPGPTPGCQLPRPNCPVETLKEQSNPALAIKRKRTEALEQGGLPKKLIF
Chain of CDK7/CycH/MAT1 (P51946 whole entry partner, species assumed): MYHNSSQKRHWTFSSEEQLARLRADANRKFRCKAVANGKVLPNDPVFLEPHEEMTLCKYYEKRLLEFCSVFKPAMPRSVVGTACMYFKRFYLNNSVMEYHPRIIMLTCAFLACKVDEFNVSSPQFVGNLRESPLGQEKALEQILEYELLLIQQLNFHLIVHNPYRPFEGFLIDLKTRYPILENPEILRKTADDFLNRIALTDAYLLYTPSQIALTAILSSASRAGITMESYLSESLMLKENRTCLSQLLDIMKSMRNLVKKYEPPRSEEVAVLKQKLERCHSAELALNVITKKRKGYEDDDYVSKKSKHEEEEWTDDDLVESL
Chain of CDK7/CycH/MAT1 (P51948 whole entry partner, species assumed): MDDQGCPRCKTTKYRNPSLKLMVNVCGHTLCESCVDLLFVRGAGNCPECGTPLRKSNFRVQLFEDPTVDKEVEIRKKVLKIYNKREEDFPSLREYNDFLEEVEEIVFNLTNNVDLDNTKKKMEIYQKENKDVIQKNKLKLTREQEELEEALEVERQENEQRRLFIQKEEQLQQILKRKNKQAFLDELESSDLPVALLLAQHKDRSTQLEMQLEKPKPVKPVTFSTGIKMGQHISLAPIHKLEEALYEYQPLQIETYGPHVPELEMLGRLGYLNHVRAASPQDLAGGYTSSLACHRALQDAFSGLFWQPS

CC(C)c1cnn2c(NCc3ccccc3)cc(NC[C@H]3CCNC[C@@H]3O)nc12 [CT7001, reference compound]
Tlast ([1]; male ICR mice, iv. 10mg/kg): 8 H | Tlast ([1]; male ICR mice, po. 10mg/kg): 8 h | Vz ([1]; male ICR mice, po. 10mg/kg): 55.15 L/kg | Vd ([1]; male, ICR, iv. 10mg/kg, read-out: Vss): 1.91 L/kg | Vd ([1]; male, ICR, iv. 10mg/kg, read-out: Vz): 2.62 L/kg | AUC(0-t) ([1]; male ICR mice, iv. 10mg/kg): 8120 ng·h/mL | Cmax ([1]; male ICR mice, iv. 10mg/kg): 17400 ng/mL | MRT last ([1]; male ICR mice, iv. 10mg/kg): 1.3 h | clearance ([1]; male ICR mice, iv. 10mg/kg): 20 mL/min/kg | half-life ([1]; male ICR mice, iv. 10mg/kg): 1.5 h | AUC(0-inf) ([1]; male ICR mice, iv. 10mg/kg): 8400 ng·h/mL | concentration at 8 h ([1]; male ICR mice, iv. 10mg/kg): 126 ng/mL | AUC(0-t) ([1]; male ICR mice, po. 10mg/kg): 541 ng·h/mL | Cmax ([1]; male ICR mice, po. 10mg/kg): 99 ng/mL | MRT last ([1]; male ICR mice, po. 10mg/kg): 3.6 h | Tmax ([1]; male ICR mice, po. 10mg/kg): 2 h | half-life ([1]; male ICR mice, po. 10mg/kg): 2.5 h | AUC(0-inf) ([1]; male ICR mice, po. 10mg/kg): 653 ng·h/mL | bioavailability ([1]; male ICR mice, po. 10mg/kg): 7.8% | concentration at 8 h ([1]; male ICR mice, po. 10mg/kg): 31 ng/mL | IC30 (HCC70): 518.9 nM | IC30 (HCT-116): 463.7 nM | IC30 (MDA-MB-468): 602.2 nM | IC30 (Jurkat): 473.3 nM

[2H]C([2H])(Nc1cc(NC[C@H]2CCNC[C@@H]2O)nc2c(C(C)C)cnn12)c1ccccc1 [Compound 8]
IC30 (HCT-116): 231.7 nM | IC30 (MDA-MB-468): 350.4 nM | IC30 (Jurkat): 329.4 nM

N#Cc1cnn2c(NCc3ccccc3)cc(NC[C@H]3CCNC[C@@H]3O)nc12 [Compound 22]
IC50 (CDK7/CycH/MAT1): 4.31 nM | IC30 (HCT-116): 3453.0 nM | IC30 (MDA-MB-468): 2910.0 nM | IC30 (Jurkat): 4087.0 nM

C#CCNc1cc(NC[C@H]2CCNC[C@@H]2O)nc2c(C(C)C)cnn12 [Compound 33]
Clast ([1]; male ICR mice, iv. 10mg/kg): 6 ng/mL | T1/2 ([1]; male ICR mice, iv. 10mg/kg): longer half-life | Tlast ([1]; male ICR mice, iv. 10mg/kg): 24 H | Vss ([1]; male ICR mice, iv. 10mg/kg): higher steady-state apparent volume of distribution | Clast ([1]; male ICR mice, po. 10mg/kg): 5 ng/mL | Tlast ([1]; male ICR mice, po. 10mg/kg): 6 h | Vd [1, 2]: 27.8 L/kg | Vd [1, 3]: 90 L/kg | AUC(0-t) ([1]; male ICR mice, iv. 10mg/kg): 1510 ng·h/mL | Cmax ([1]; male ICR mice, iv. 10mg/kg): 990 ng/mL | MRT last ([1]; male ICR mice, iv. 10mg/kg): 2.4 h | clearance ([1]; male ICR mice, iv. 10mg/kg): 104 mL/min/kg | half-life ([1]; male ICR mice, iv. 10mg/kg): 10 h | AUC(0-inf) ([1]; male ICR mice, iv. 10mg/kg): 1600 ng·h/mL | AUC(0-t) ([1]; male ICR mice, po. 10mg/kg): 65 ng·h/mL | Cmax ([1]; male ICR mice, po. 10mg/kg): 26 ng/mL | MRT last ([1]; male ICR mice, po. 10mg/kg): 2.4 h | Tmax ([1]; male ICR mice, po. 10mg/kg): 0.5 h | half-life ([1]; male ICR mice, po. 10mg/kg): 2.9 h | AUC(0-inf) ([1]; male ICR mice, po. 10mg/kg): 88 ng·h/mL | bioavailability ([1]; male ICR mice, po. 10mg/kg): 5.5% | IC50 (CDK7/CycH/MAT1): 2.7 nM | IC30 (HCC70): 501.9 nM | IC30 (HCT-116): 788.3 nM | IC30 (MDA-MB-468): 1101 nM | IC30 (Jurkat): 200.8 nM

CC#CCNc1cc(NC[C@H]2CCNC[C@@H]2O)nc2c(C(C)C)cnn12 [Compound 38]
IC50 (CDK7/CycH/MAT1): 18.9 nM | IC30 (HCC70): 968.8 nM | IC30 (HCT-116): 391.3 nM | IC30 (MDA-MB-468): 765.9 nM | IC30 (Jurkat): 858.8 nM

C=CCNc1cc(NC[C@H]2CCNC[C@@H]2O)nc2c(C(C)C)cnn12 [Compound 41]
Clast ([1]; male ICR mice, iv. 10mg/kg): 19 ng/mL | Tlast ([1]; male ICR mice, iv. 10mg/kg): 8 H | Vss ([1]; male ICR mice, iv. 10mg/kg): higher steady-state apparent volume of distribution | Bioavailability (F) ([1]; male ICR mice, po. 10mg/kg): better oral bioavailability | Clast ([1]; male ICR mice, po. 10mg/kg): 8 ng/mL | Tlast ([1]; male ICR mice, po. 10mg/kg): 8 h | Vd [1, 2]: 4.22 L/kg | Vd [1, 3]: 10.9 L/kg | AUC(0-t) ([1]; male ICR mice, iv. 10mg/kg): 2960 ng·h/mL | Cmax ([1]; male ICR mice, iv. 10mg/kg): 4360 ng/mL | MRT last ([1]; male ICR mice, iv. 10mg/kg): 1.1 h | clearance ([1]; male ICR mice, iv. 10mg/kg): 55 mL/min/kg | half-life ([1]; male ICR mice, iv. 10mg/kg): 2.3 h | AUC(0-inf) ([1]; male ICR mice, iv. 10mg/kg): 3020 ng·h/mL | AUC(0-t) ([1]; male ICR mice, po. 10mg/kg): 445 ng·h/mL | Cmax ([1]; male ICR mice, po. 10mg/kg): 150 ng/mL | MRT last ([1]; male ICR mice, po. 10mg/kg): 2.5 h | Tmax ([1]; male ICR mice, po. 10mg/kg): 2 h | half-life ([1]; male ICR mice, po. 10mg/kg): 1.5 h | AUC(0-inf) ([1]; male ICR mice, po. 10mg/kg): 462 ng·h/mL | bioavailability ([1]; male ICR mice, po. 10mg/kg): 15% | IC50 (CDK7/CycH/MAT1): 6.3 nM

CC(C)c1cnn2c(NCC3CC3)cc(NC[C@H]3CCNC[C@@H]3O)nc12 [Compound 45]
IC50 (CDK7/CycH/MAT1): 21.2 nM | IC30 (HCC70): 596.4 nM | IC30 (HCT-116): 429.4 nM | IC30 (MDA-MB-468): 851.8 nM | IC30 (Jurkat): 1126 nM

Reference: patent EP4671245A1, “HETEROAROMATIC RING COMPOUND SERVING AS CDK7 KINASE INHIBITOR, PREPARATION THEREOF, AND USE THEREOF” (Jiangsu Chia Tai Fenghai Pharmaceutical Co., Ltd., priority 2023, dated 2024)
